{
  "source": "patent US10168342B2",
  "about": "“Lipid probes and uses thereof” (THE SCRIPPS RESEARCH INSTITUTE, priority 2015, dated 2019)",
  "assay_in_all_cases": "isoTOP-ABPP mapping of AEA-DA-modified peptides in Neuro2a cells",
  "format_in_all_cases": "cell-based",
  "key": {"[1]": {"target": "T1, AEA-DA-modified peptides in Neuro2a cells (Mus musculus, UniProt P36536)", "T1 construct": "endogenous in cells; host or cells: Neuro2a", "T1 sequence (P36536 whole entry)": "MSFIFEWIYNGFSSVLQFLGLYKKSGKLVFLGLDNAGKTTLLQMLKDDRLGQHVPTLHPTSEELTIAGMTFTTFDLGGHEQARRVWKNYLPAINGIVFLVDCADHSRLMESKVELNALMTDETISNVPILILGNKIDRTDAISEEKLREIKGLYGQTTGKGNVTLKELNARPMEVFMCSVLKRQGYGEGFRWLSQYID", "conditions": "AEA-DA-modified peptide SAR1A P36536 192-199, SEQ ID NO 95; probe 100 μM, 12 replicates"}, "[2]": {"target": "T2, AEA-DA-modified peptides in Neuro2a cells (Mus musculus, UniProt Q91V01)", "T2 construct": "endogenous in cells; host or cells: Neuro2a", "T2 sequence (Q91V01 whole entry)": "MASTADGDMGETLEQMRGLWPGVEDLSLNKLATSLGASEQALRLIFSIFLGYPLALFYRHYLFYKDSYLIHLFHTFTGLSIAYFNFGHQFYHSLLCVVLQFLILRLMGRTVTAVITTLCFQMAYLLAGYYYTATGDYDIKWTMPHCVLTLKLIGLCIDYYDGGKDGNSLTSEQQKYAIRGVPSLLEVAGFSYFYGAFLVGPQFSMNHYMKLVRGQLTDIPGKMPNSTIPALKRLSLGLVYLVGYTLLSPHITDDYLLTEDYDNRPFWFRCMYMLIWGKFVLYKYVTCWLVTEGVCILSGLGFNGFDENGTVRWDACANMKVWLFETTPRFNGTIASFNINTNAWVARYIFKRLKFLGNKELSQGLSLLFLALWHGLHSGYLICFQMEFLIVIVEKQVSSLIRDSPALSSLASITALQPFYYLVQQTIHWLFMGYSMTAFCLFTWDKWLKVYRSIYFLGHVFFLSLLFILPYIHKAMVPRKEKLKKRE", "conditions": "AEA-DA-modified peptide LPCAT3 Q91V01 18-31, SEQ ID NO 58; probe 100 μM, 12 replicates"}, "[3]": {"target": "T3, AEA-DA-modified peptides in Neuro2a cells (Mus musculus, UniProt Q9CZN7)", "T3 construct": "endogenous in cells; host or cells: Neuro2a", "T3 sequence (Q9CZN7 30-504)": "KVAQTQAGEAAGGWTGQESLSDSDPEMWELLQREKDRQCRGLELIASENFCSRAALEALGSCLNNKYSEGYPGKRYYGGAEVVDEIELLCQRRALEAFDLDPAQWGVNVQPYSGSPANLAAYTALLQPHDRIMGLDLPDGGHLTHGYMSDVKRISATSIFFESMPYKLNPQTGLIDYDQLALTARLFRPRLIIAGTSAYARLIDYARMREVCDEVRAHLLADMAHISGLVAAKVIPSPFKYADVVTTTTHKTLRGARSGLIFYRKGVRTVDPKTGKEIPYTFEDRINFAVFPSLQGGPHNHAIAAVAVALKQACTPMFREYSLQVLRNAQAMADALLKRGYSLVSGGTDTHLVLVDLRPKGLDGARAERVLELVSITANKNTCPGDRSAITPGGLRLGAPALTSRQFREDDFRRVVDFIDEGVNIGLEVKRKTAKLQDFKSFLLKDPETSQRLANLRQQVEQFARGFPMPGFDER", "conditions": "probe 100 μM, 12 replicates"}},
  "data": [
    {"smiles": "C#CCCCC1(CC/C=C\\C/C=C\\C/C=C\\CCCC(=O)NCCO)N=N1", "note": "[AEA-DA, (5Z,8Z,11Z)-N-(2-hydroxyethyl)-14-(3-(pent-4-yn-1-yl)-3H-diazirin-3-yl)tetradeca-5,8,11-trienamide]", "values": [
      {"measurement": "Times observed", "setting": "[1]", "result": 6},
      {"measurement": "Times observed", "setting": "[2]", "result": 2},
      {"measurement": "Times observed", "setting": "[3]; AEA-DA-modified peptide SHMT2 Q9CZN7 105-122, SEQ ID NO 101", "result": 9},
      {"measurement": "Times observed", "setting": "[3]; AEA-DA-modified peptide SHMT2 Q9CZN7 161-182, SEQ ID NO 102", "result": 3}
    ]}
  ]
}
